In ChEMBL document CHEMBL1201862, “PubChem BioAssay data set” (2004):
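Five concentrations, 48 hours, 96-well plates. GI50 is the concentration that inhibits growth by half.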 Activity calls are given as the source filed them. No stated cut-off is given here; in the data, active = GI50 up to about 1.1 µM and inactive = higher.

Tests used:
Assay in all cases: NCI-60 cell line screen, 48 h
DMS-273 = tested on: DMS-273
XF498 = tested on: XF498
RXF 631 = tested on: RXF 631
HOP-18 = tested on: HOP-18
LXFL 529 = tested on: LXFL 529
DMS-114 = tested on: DMS-114
M19-MEL = tested on: M19-MEL
KM-20L2 = tested on: KM-20L2

| SMILES | GI50 (DMS-273) | GI50 (XF498) | GI50 (RXF 631) | GI50 (HOP-18) | GI50 (LXFL 529) | GI50 (DMS-114) | GI50 (M19-MEL) | GI50 (KM-20L2) |
| --- | --- | --- | --- | --- | --- | --- | --- | --- |
| C/C(CN1C(=O)c2ccccc2C1=O)=N\NS(=O)(=O)c1cccc(C(=O)O)c1 | > 100 µM (inactive) | > 100 µM (inactive) | > 100 µM (inactive) | > 100 µM (inactive) | > 100 µM (inactive) | > 100 µM (inactive) | > 100 µM (inactive) | > 100 µM (inactive) |
| NCCc1ccc2oc3cc(=O)c4ccccc4c-3nc2c1 | 1.36 µM (inactive) | 3.41 µM (inactive) | 2.96 µM (inactive) | 1 µM (active) | 2.58 µM (inactive) | 1.08 µM (active) | 0.3 µM (active) | 2.75 µM (inactive) |
| Cc1cc(C)c(C(=O)O)c(SSc2cc(C)cc(C)c2C(=O)O)c1 | > 100 µM (inactive) | > 100 µM (inactive) | > 100 µM (inactive) |  | > 100 µM (inactive) | > 100 µM (inactive) | > 100 µM (inactive) | > 100 µM (inactive) |
| Cc1cc(N(CCC#N)CCC#N)ccc1/C=C\C(=O)Nc1ccccc1 | 59.2 µM (inactive) | > 100 µM (inactive) | > 100 µM (inactive) |  | 0.859 µM (active) | 49.7 µM (inactive) | 36.7 µM (inactive) | 1.07 µM (active) |
| CC1(OCc2ccccc2)C(=O)N2C1NCC2(C)C (stereo unspecified) | > 100 µM (inactive) | > 100 µM (inactive) | > 100 µM (inactive) |  | > 100 µM (inactive) | > 100 µM (inactive) | > 100 µM (inactive) | > 100 µM (inactive) |
| CCc1cccc(C(C)C)c1NC(=O)C(=O)CC(=O)c1c(C)[n+]([O-])c2ccccc2[n+]1[O-] |  | > 100 µM (inactive) | > 100 µM (inactive) |  | > 100 µM (inactive) | > 100 µM (inactive) | > 100 µM (inactive) | > 100 µM (inactive) |
| O=c1[nH]c(=O)n(C2CC(O)C(CO)O2)cc1OS(=O)(=O)C(F)(F)F (stereo unspecified) | > 100 µM (inactive) | < 0.01 µM (active) | > 100 µM (inactive) | > 100 µM (inactive) | > 100 µM (inactive) | > 100 µM (inactive) | > 100 µM (inactive) | > 100 µM (inactive) |
